Measurements from US12702712B2, “Enteroendocrine cell-targeting polymer substance conjugated with photosensitizer, and medical use thereof for ameliorating metabolic disease” (The Catholic University of Korea Industry-Academic …, priority 2020, dated 2026).

Legend:
[1] = Dispersion in aqueous phase; assay type: physicochemical; settings: water
[2] = Singlet oxygen formation in aqueous phase (SOSG fluorescence, laser irradiation); settings: 5 μg/mL in aqueous phase with SOSG; laser 670 nm, 4 J/cm^2, 20 mW/cm^2, 200 seconds
Procedure: Singlet oxygen sensor green (SOSG), which is a fluorescent detecting substance that directly reacts with singlet oxygen, was dispersed in an aqueous phase, oleic acid-polyethylene glycol-chlorin e6 (5 μg/mL) was added thereto, and the resulting mixture was mixed. As a comparative example, chlorin e6 (5 μg/mL) or polyethylene glycol-chlorin e6 (5 μg/mL) was used. When OA-PEG-Ce6 and SOSG coexisted in the aqueous phase, the mixture was irradiated with a laser (670 nm) (4 J/cm^2, 20 mW/cm^2, 200 seconds), and the degree of fluorescence was measured by an RF analyzer.

insulin = assay: Plasma insulin by ELISA after photodynamic therapy; assay type: in vivo, C57BL6 mice; settings: high-fat diet mice, oral 10 mg/kg (based on chlorin e6), after 22 days; for plasma insulin concentration, administration+light irradiation: laser 0.7 J/cm^2, repeated after 4 days; for plasma insulin concentration, administration only: no light
Procedure: (§1) After 4 days, photodynamic therapy was performed once again by the same method, and then, mouse blood was collected after 22 days. Plasma was isolated from blood to measure the concentrations of GIP (Merk Millipore, USA) and insulin (anti-insulin+pro insulin antibody (10 μg/ml, ab8304, Abcam)) by enzyme-linked immunosorbent assay (ELISA).

[3] = test system: Human duodenal cells (HUTU-80); assay: Intracellular distribution by confocal laser scanning microscopy; assay type: cell-based; settings: 2 μg/ml (based on chlorin e6), 1 hour; CLSM
Procedure: (§2) Human duodenal cells (HUTU-80) and canine kidney epithelial cells (MDCK) were treated with OA-PEG-Ce6 and polyethylene glycol-chlorin e6 at a concentration of 2 μg/ml (based on chlorin e6) for 1 hour. Thereafter, the cells were washed three times with DPBS and fixed with 4% paraformaldehyde, and the cell nuclei were stained at 4° C. Thereafter, cell images were confirmed under a confocal laser scanning microscope (CLSM).

[4] = test system: canine kidney epithelial cells (MDCK); assay: as above; assay type: cell-based; settings: 2 μg/ml (based on chlorin e6), 1 hour; CLSM
Procedure: as §2

[5] = Obesity amelioration: body weight and fat mass after photodynamic therapy; assay type: in vivo, C57BL6 mice; settings: high-fat diet mice, oral 10 mg/kg (based on chlorin e6), 22 days; for body weight, last day relative to before therapy, administration+light irradiation / fat mass, last day relative to before therapy, administration+light irradiation: laser 0.7 J/cm^2, repeated after 4 days; for fat mass, last day relative to before therapy, administration+light irradiation / fat mass, last day relative to before therapy, administration only: EchoMRI; for body weight, last day relative to before therapy, administration only / fat mass, last day relative to before therapy, administration only: no light
Procedure: After 4 days, photodynamic therapy was performed once again by the same method, and then, changes in body weight and fat mass were measured every other day for 22 days. The experimental results were shown in a bar graph by dividing the body weight and fat mass on the last day of the experiment by the body weight and fat mass before the photodynamic therapy and then converting the obtained values into percentages. Fat mass was measured with EchoMRI-500 (Echo MRI, Houston, TX).

[6] = test system: Human duodenal cells (HUTU-80)
Procedure: (§4) Human duodenal cells (HUTU-80) and canine kidney cells (MDCK) were aliquoted at a density of 1×10^4 cells/well in 0.2 ml portions in each well of a 96-well plate and cultured under conditions of 37° C. and 5% CO2 for 24 hours. On the next day, each well was treated with OA-PEG-Ce6 or polyethylene glycol-chlorin e6 at a concentration of 0.25 to 10 μg/ml (based on chlorin e6), and the corresponding treatment was performed by dividing a light non-irradiation group and a light irradiation group (irradiated with a laser with a wavelength of 671 nm at an intensity of 2 J/cm^2). Thereafter, cell viability was confirmed by the MTT test method.

[7] = target: T1, HEK-293 cells expressing GPR119 (Homo sapiens, UniProt Q8TDV5); assay: Uptake according to GPR119 expression level (flow cytometry); assay type: cell-based; settings: GPR119 expression vector 0, 4 and 8 μg, 2 μg/ml (based on chlorin e6)
T1 construct: expressed in transfected cells; host or cells: HEK-293
T1 sequence (Q8TDV5 1-335): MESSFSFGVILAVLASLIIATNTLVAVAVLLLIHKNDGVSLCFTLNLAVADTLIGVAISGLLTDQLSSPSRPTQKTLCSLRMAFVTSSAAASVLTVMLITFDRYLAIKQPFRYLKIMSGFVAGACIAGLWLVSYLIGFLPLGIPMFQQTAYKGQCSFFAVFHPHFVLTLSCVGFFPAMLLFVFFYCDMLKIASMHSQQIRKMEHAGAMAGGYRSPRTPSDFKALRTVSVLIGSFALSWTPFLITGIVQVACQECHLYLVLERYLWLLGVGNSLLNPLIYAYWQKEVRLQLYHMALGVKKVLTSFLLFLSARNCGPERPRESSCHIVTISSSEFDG
Procedure: In order to confirm the mechanism by which OA-PEG-Ce6 targets enteroendocrine cells, human fetal kidney cells (HEK-293) expressing G protein-coupled receptor 119 (GPR119), which is a receptor known to recognize fatty acids, were produced.
After 24 hours, a GPR119 expression vector (0, 4 and 8 μg) and polyethyleneimine (PEI) were added to a serum-free medium and mixed for 30 minutes so as to form a complex, and then each cell was treated with the complex for 4 hours. Thereafter, the medium was replaced with a medium containing bovine serum, and GPR119 was allowed to be expressed by culturing the cells for 48 hours. It was confirmed by western blotting whether GPR119 was expressed.
(§3) HEK-293 cells expressing GPR119 were treated with OA-PEG-Ce6 and polyethylene glycol-chlorin e6 as a comparative group at a concentration of 2 μg/ml (based on chlorin e6) for 1 hour and 4 hours, respectively. Thereafter, the cells were washed three times with DPBS, collected, and analyzed by a flow cytometer (BD FACSCanto II).

GIP = assay: Plasma GIP by ELISA after photodynamic therapy; assay type: in vivo, C57BL6 mice; settings: high-fat diet mice, oral 10 mg/kg (based on chlorin e6), after 22 days; for plasma GIP concentration, administration+light irradiation: laser 0.7 J/cm^2, repeated after 4 days; for plasma GIP concentration, administration only: no light
Procedure: as §1

[8] = test system: Human duodenal cells (HUTU-80); assay: Intracellular uptake by flow cytometry; assay type: cell-based; settings: 2 μg/ml (based on chlorin e6), 1 hour and 4 hours
Procedure: as §3, with “Thereafter, the” for “HEK-293”, “cells” for “cells expressing GPR119”

[9] = test system: Human duodenal cells (HUTU-80); assay: Competitive inhibition of uptake in presence of fatty acid (flow cytometry); assay type: cell-based; settings: 10 μg/ml (based on chlorin e6) with 0.10 to 10.00 mg/ml oleylethanolamine, 2 hours
Procedure: Thereafter, the cells were treated with both 0.10 to 10.00 mg/ml oleylethanolamine and 10 μg/ml OA-PEG-Ce6 (based on chlorin e6) and cultured for 2 hours. Thereafter, the cells were washed three times with DPBS, collected, and analyzed by a flow cytometer (BD FACSCanto II).

[10] = test system: Human duodenal cells (HUTU-80); assay: Intracellular active oxygen formation (DCFDA, confocal microscope); assay type: cell-based; settings: 2 μg/ml (based on chlorin e6), 2 hours, light 0, 0.5, 1 and 1.5 J/cm^2, increasing intensity
Procedure: Thereafter, the cells were treated with OA-PEG-Ce6 at a concentration of 2 μg/ml (based on chlorin e6) for 2 hours, and washed three times with DPBS. The cells were treated with DCFDA diluted in DPBS, cultured for 30 minutes, and further washed three times with DPBS. The cells were irradiated with a light with an intensity of 0, 0.5, 1 and 1.5 J/cm^2 to induce a reaction between DCFDA incorporated into the cells and singlet oxygen. Fluorescence appears when the two substances react. Thereafter, the cells were fixed with 4% paraformaldehyde, the cell nuclei were stained with DAPI, and images were confirmed under a confocal microscope.

[11] = test system: Human duodenal cells (HUTU-80); assay: Cytotoxicity and phototoxicity, MTT test; settings: for treatment concentration at which cell viability decreased, light irradiation group: laser 671 nm, 2 J/cm^2, concentration based on chlorin e6
Procedure: as §4

[12] = mouse, in vivo, po, 10 mg/kg
Procedure: C57BL6 mice were fed a high-fat diet for 8 weeks to induce obese and diabetic conditions, and were divided into a control (PBS), a light irradiation group (Laser), a polyethylene glycol-chlorin e6 adiministration group (PC), a polyethylene glycol-chlorin e6 adiministration+light irradiation group (PCL), an OA-PEG-Ce6 adiministration group (OPC) and an OA-PEG-Ce6 adiministration+light sirradiation group (OPCL). Each group was orally administered the treated substance at a concentration of 10 mg/kg (based on chlorin e6), and after 30 minutes, a catheter was injected for endoscopic access and a laser was irradiated through the mouth.
Meanwhile, the accumulation degree of photosensitizer in the removed duodenum was confirmed with a fluorescence-labeled organism bioimaging instrument (Neo Science), and the fluorescence intensity of each tissue was graphically shown.

[13] = test system: canine kidney cells (MDCK); assay: Cytotoxicity and phototoxicity, MTT test; settings: 0.25 to 10 μg/ml (based on chlorin e6), no light
Procedure: as §4

Row | Molecule | dispersion in the aqueous phase [1] | plasma insulin concentration, administration+light irradiation (insulin) [pg/mL] | plasma insulin concentration, administration only (insulin) [pg/mL] | body weight, last day relative to before therapy, administration+light irradiation [5] [%] | fat mass, last day relative to before therapy, administration+light irradiation [5] [%] | body weight, last day relative to before therapy, administration only [5] [%] | fat mass, last day relative to before therapy, administration only [5] [%] | plasma GIP concentration, administration+light irradiation (GIP) [pg/mL] | plasma GIP concentration, administration only (GIP) [pg/mL] | treatment concentration at which cell viability decreased, light irradiation group [11] [µg/mL] | further results
1 | C=Cc1c(C)c2cc3nc(c(CC(=O)O)c4[nH]c(cc5nc(cc1[nH]2)C(C)=C5CC)c(C)c4C(=O)O)[C@@H](CCC(=O)O)[C@@H]3C [chlorin e6] | could not be dispersed in the aqueous phase | – | – | – | – | – | – | – | – | – | ability to form active oxygen (singlet oxygen) [2]: could hardly form active oxygen
2 | oleic acid-polyethylene glycol-chlorin e6 [OA-PEG-Ce6] | well dispersed in water | 758.0 | 210.5 | 83.6 | 47.2 | 91.1 | 62.8 | 177.7 | 435.5 | ≥ 0.5 | incorporation into cells versus conjugate without targeting substance [3]: more incorporated into cells than polyethylene glycol-chlorin e6 (PC); incorporation into HUTU-80 versus MDCK cells [4]: more incorporated into human duodenal cells (HUTU-80) than in canine kidney epithelial cells (MDCK); concentration at which cell viability decreased, light non-irradiation group [6]: ≥ 2500 ng/mL; intracellular accumulation rate with increasing GPR119 expression [7]: partially increased; amount absorbed by the cells [8]: more absorbed by the cells than polyethylene glycol-chlorin e6 (PC); intracellular uptake (fluorescence intensity) with increasing oleylethanolamine [9]: intracellular uptake was reduced; intracellular active oxygen generation (DCFDA green fluorescence) [10]: generated a large amount of active oxygen; accumulation degree of photosensitizer in the duodenum [12]: remarkably large amount of photosensitizer was accumulated
3 | polyethylene glycol-chlorin e6 [reference compound] | well dispersed in water | 374.3 | 304.3 | 90.1 | 60.0 | 93.1 | 68.4 | 339.6 | 289.1 | ≥ 2.5 | change in cell viability, light non-irradiation group [13]: no change in the cell viability; change in cell viability, light non-irradiation group ([11]; 0.25 to 10 μg/ml (based on chlorin e6), no light): almost no change in cell viability
